Data taken from patent EP2676962A1, “Derivatives of 1-aminoalkylphosphonate diaryl esters, method of 1-aminoalkylphosphonate diaryl ester derivatives preparation and their application” (priority 2012, dated 2013).
Where two headings read alike, the source gives them in different places.

Experiments:
Type in all cases: biochemical
[1] = biological target: T1, cathepsin G (CatG) (Homo sapiens, UniProt P08311); assay: Inhibitory activity toward cathepsin G, fluorogenic substrate, microplate reader
T1 sequence (P08311 21-244): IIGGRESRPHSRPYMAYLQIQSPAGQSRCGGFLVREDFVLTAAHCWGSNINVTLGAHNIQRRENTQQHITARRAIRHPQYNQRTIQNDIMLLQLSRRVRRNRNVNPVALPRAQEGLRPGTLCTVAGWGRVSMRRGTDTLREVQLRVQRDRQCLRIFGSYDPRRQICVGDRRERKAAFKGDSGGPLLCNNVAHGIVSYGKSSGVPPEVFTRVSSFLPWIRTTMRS
Method: (§1) The biological activity of peptidyl derivatives of phosphonic analogs of valine, alanine, phenylalanine, 4-guanidinephenylglycine, leucine, and 1-aminobutyric acid, containing the N-terminal biotin residue were tested for their ability to inhibit proteolytic activity of selected serine proteases, and the control cysteine proteases. All tests were performed using a microplate reader. As enzyme substrates fluorescent peptides were used. The method to measure the activity of the compounds obtained are described below for each of the enzymes tested: human neutrophil elastase (HNE), porcine pancreatic elastase (PPE), subtilisin (Sub), cathepsin G (CatG), proteinase 3 (PR3), chymotrypsin (ChTry) trypsin (Try), papain (Pap) and cathepsin L (CatL). Measurement of the inhibitory activity was performed at different inhibitor concentrations ranging from 12.5 nM to 2000nm.
Measurement of inhibitory activity of compounds toward cathepsin G (CatG).
(§2) The inhibitory activity assay is performed at 37°C in 0,1M Tric-HCl, 0,5M NaCl buffer, pH 7,5, within 10 min after initial pre-incubation of the enzyme with inhibitor tested at 37°C for 10 min. The enzyme concentration is 100nM. Substrate used MCA-Phe-Val-Thr-Gnf-Ser-Trp-Anb-NH2 at 2.5µM. Measurement is taken at an excitation wavelength of 325nm and 400nm emission.
(§3) The IC50 value is the concentration of inhibitor required to inhibit half of the enzyme activity after 10 minutes incubation.

[2] = biological target: T2, proteinase 3 (PR3) (Homo sapiens, UniProt P24158); assay: Inhibitory activity toward proteinase 3, fluorogenic substrate, microplate reader
T2 sequence (P24158 28-248): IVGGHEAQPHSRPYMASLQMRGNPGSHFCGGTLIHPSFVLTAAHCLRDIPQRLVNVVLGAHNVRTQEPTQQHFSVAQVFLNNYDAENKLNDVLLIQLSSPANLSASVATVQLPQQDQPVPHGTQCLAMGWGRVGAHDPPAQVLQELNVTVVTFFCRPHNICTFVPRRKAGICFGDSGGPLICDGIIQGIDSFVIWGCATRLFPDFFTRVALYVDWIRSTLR
Method: as §1
Measurement of inhibitory activity of compounds toward proteinase 3(PR3).
as §2, with “17nM.” for “100nM.”, “Abz-Tyr-Tyr-Abu-Anb-NH2” for “MCA-Phe-Val-Thr-Gnf-Ser-Trp-Anb-NH2”, “30µM.” for “2.5µM.”
as §3

[3] = biological target: subtilisin (Sub) (Bacillus licheniformis, UniProt P00780); assay: Inhibitory activity toward subtilisin, fluorogenic substrate, microplate reader
Sequence of subtilisin (Sub) (P00780 106-379): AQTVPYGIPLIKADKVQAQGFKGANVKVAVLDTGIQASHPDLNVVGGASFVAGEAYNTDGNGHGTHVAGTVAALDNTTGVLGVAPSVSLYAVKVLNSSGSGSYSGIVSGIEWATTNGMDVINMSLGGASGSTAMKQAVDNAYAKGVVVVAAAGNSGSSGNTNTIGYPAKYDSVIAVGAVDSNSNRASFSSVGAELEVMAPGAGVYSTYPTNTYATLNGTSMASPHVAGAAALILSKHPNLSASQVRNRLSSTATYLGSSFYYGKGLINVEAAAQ
Method: as §1
Measurement of inhibitory activity of compounds toward subtilisin (Sub).
(§4) The inhibitory activity assay is performed at 37°C in 0,05M Tris-HCl, 1M NaCl, 0,01% Triton X-100 buffer, pH 7,5, within 10 min after initial pre-incubation of the enzyme with inhibitor tested at 37°C for 10 min. The enzyme concentration is 5nM. Substrate used Me-Suc-Ala-Ala-Pro-Phe-AMC at 5µM. Measurement is taken at an excitation wavelength of 350nm and 460nm emission.
as §3

[4] = biological target: T3, trypsin (Try) (Bos taurus, UniProt P00760); assay: Inhibitory activity toward trypsin, fluorogenic substrate, microplate reader; settings: 10 min pre-incubation at 37°C, pH 7,5, Cbz-Arg-AFC 100µM; NI = brak inhibicji (no inhibition)
T3 sequence (P00760 24-246): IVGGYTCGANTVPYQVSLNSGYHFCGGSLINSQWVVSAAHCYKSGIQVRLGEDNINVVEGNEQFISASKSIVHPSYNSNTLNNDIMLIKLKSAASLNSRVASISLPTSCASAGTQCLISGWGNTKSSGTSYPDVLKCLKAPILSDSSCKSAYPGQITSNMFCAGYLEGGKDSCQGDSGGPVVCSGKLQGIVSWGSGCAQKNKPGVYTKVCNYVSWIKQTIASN
Method: as §1
Measurement of inhibitory activity of compounds toward trypsin (Try).
(§5) The inhibitory activity assay is performed at 37°C in 0,1M HEPES, 0,5M NaCl, 0,03% Triton X-100 buffer, pH 7,5, within 10 min after initial pre-incubation of the enzyme with inhibitor tested at 37°C for 10 min. The enzyme concentration is 25nM. Substrate used Cbz-Arg-AFC at 100µM. Measurement is taken at an excitation wavelength of 400nm and 505nm emission.
as §3

[5] = biological target: chymotrypsin (ChTry) (Bos taurus, UniProt P00766); assay: Inhibitory activity toward chymotrypsin, fluorogenic substrate, microplate reader; settings: 10 min pre-incubation at 37°C, pH 7,5, Suc-Ala-Ala-Pro-Phe-AMC 5µM; NI = brak inhibicji (no inhibition)
Method: as §1
Measurement of inhibitory activity of compounds toward […] (ChyTry).
as §2, with “HEPES,” for “Tric-HCl,”, “3nM.” for “100nM.”, “Suc-Ala-Ala-Pro-Phe-AMC” for “MCA-Phe-Val-Thr-Gnf-Ser-Trp-Anb-NH2”, “5µM.” for “2.5µM.”, “350nm” for “325nm”, “460nm” for “400nm”
as §3

[6] = biological target: porcine pancreatic elastase (PPE) (Sus scrofa, UniProt P00772); assay: Inhibitory activity toward porcine pancreatic elastase, fluorogenic substrate, microplate reader
Sequence of porcine pancreatic elastase (PPE) (P00772 27-266): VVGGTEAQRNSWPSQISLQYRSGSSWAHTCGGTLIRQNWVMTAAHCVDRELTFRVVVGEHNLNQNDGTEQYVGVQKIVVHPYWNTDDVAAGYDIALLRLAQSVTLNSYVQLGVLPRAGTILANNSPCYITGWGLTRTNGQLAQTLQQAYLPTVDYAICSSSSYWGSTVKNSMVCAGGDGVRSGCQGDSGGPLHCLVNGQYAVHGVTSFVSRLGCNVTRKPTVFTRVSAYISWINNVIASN
Method: as §1
Measurement of inhibitory activity of compounds toward porcine pancreatic elastase (PPE).
as §4, with “0,01M” for “0,05M”, “0,05%” for “1M NaCl, 0,01%”, “8,5,” for “7,5,”, “60nM.” for “5nM.”, “Me-Suc-Ala-Ala-Pro-Val-AMC” for “Me-Suc-Ala-Ala-Pro-Phe-AMC”, “100µM.” for “5µM.”
as §3

[7] = biological target: T4, human neutrophil elastase (HNE) (Homo sapiens, UniProt P08246); assay: Inhibitory activity toward human neutrophil elastase, fluorogenic substrate, microplate reader
T4 sequence (P08246 30-267): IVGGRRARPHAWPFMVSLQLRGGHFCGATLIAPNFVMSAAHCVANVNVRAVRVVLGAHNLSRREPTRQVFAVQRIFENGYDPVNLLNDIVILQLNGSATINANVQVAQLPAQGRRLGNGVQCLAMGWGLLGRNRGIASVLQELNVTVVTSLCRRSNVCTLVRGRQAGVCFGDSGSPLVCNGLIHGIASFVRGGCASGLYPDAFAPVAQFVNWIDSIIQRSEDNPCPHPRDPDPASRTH
Method: as §1
Measurement of inhibitory activity of compounds toward human neutrophil elastase (HNE).
as §5, with “0,01M” for “0,1M”, “0,0025U/ml.” for “25nM.”, “Me-Suc-Ala-Ala-Pro-Val-AFC” for “Cbz-Arg-AFC”, “25µM.” for “100µM.”
as §3

[8] = 10 min pre-incubation at 37°C, pH 7,5, MCA-Phe-Val-Thr-Gnf-Ser-Trp-Anb-NH2 2.5µM, NI = brak inhibicji (no inhibition)
[9] = read-out: PR3 IC50, 10 min pre-incubation at 37°C, pH 7,5, Abz-Tyr-Tyr-Abu-Anb-NH2 30µM, NI = brak inhibicji (no inhibition)
[10] = 10 min pre-incubation at 37°C, pH 7,5, Me-Suc-Ala-Ala-Pro-Phe-AMC 5µM, NI = brak inhibicji (no inhibition)
[11] = read-out: PPE IC50, 10 min pre-incubation at 37°C, pH 8,5, Me-Suc-Ala-Ala-Pro-Val-AMC 100µM, NI = brak inhibicji (no inhibition)
[12] = 10 min pre-incubation at 37°C, pH 7,5, Me-Suc-Ala-Ala-Pro-Val-AFC 25µM, NI = brak inhibicji (no inhibition)
[13] = 10 min pre-incubation at 37°C, pH 7,5, Abz-Tyr-Tyr-Abu-Anb-NH2 30µM, NI = brak inhibicji (no inhibition)

SMILES | IC50 [1] | Cat G Kobs/[I] [1, 8] | IC50 [2, 9] | IC50 [3] | Sub Kobs/[I] [3, 10] | Try Kobs/[I] [4] | ChyTr Kobs/[I] [5] | IC50 [6, 11] | IC50 [7] | HNE Kobs/[I] [7, 12] | IC50 ([1]; read-out: Cat G IC50, 10 min pre-incubation at 37°C, pH 7,5, MCA-Phe-Val-Thr-Gnf-Ser-Trp-Anb-NH2 2.5µM, NI = brak inhibicji (no inhibition)) | IC50 [2] | PR3 Kobs/[I] [2, 13] | IC50 [6] | IC50 ([3]; read-out: Sub IC50, 10 min pre-incubation at 37°C, pH 7,5, Me-Suc-Ala-Ala-Pro-Phe-AMC 5µM, NI = brak inhibicji (no inhibition)) | PPE Kobs/[I] ([6]; 10 min pre-incubation at 37°C, pH 8,5, Me-Suc-Ala-Ala-Pro-Val-AMC 100µM, NI = brak inhibicji (no inhibition)) | IC50 ([7]; read-out: HNE IC50, 10 min pre-incubation at 37°C, pH 7,5, Me-Suc-Ala-Ala-Pro-Val-AFC 25µM, NI = brak inhibicji (no inhibition))
CSc1ccc(OP(=O)(Oc2ccc(SC)cc2)C(CC(C)C)NC(=O)C2CCCN2C(=O)CCCCC2SCC3NC(=O)NC32)cc1 (stereo not drawn) [Compound 8, bis(4-(methylthio)phenyl) (3-methyl-1-(1-(5-(2-oxohexahydro-1H-thieno[3,4-d]imidazol-4-yl)pentanoyl)pyrrolidine-2-carboxamido)butyl)phosphonate] | 1100 ± 139 nM | 1.0*10^3 M^-1S^-1 | > 5000 nM | 11.7 ± 0.61 nM | 9.9*10^4 M^-1S^-1 | 1*10^3 M^-1S^-1 | 2.9*10^3 M^-1S^-1 | > 5000 nM | 3800 ± 250 nM | 3.0*10^2 M^-1S^-1 |  |  |  |  |  |  | 
CSc1ccc(OP(=O)(Oc2ccc(SC)cc2)C(Cc2ccccc2)NC(=O)C2CCCN2C(=O)C(NC(=O)CCCCC2SCC3NC(=O)NC32)C(C)C)cc1 (stereo not drawn) [Compound 6, bis(4-(methylthio)phenyl) (1-(1-(3-methyl-2-(5-(2-oxohexahydro-1H-thieno[3,4-d]imidazol-4-yl)pentanamido)butanoyl)pyrrolidine-2-carboxamido)-2-phenylethyl)phosphonate] | 218 ± 45 nM | 5.3*10^3 M^-1S^-1 | > 5000 nM | 5.6 ± 0.8 nM |  | 3.7*10^2 M^-1S^-1 | 1.0*10^5 M^-1S^-1 | > 5000 nM | 1.55 ± 0.05 nM | 2.5*10^5 M^-1S^-1 |  |  |  |  |  |  | 
CCC(NC(=O)C1CCCN1C(=O)C(NC(=O)CCCCC1SCC2NC(=O)NC21)C(C)C)P(=O)(Oc1ccc(SC)cc1)Oc1ccc(SC)cc1 (stereo not drawn) [Compound 13, bis(4-(methylthio)phenyl) (1-(1-(3-methyl-2-(5-(2-oxohexahydro-1H-thieno[3,4-d]imidazol-4-yl)pentanamido)butanoyl)pyrrolidine-2-carboxamido)propyl)phosphonate] |  |  |  | 147 ± 4 nM | 7.8*10^3 M^-1S^-1 | 3*10^2 M^-1S^-1 | 1.2*10^3 M^-1S^-1 |  | 2.75 ± 0.05 nM | 4.2*10^5 M^-1S^-1 | > 5000 nM | 227 ± 17 nM | 1.0*10^4 M^-1S^-1 | 23.5 ± 1.95 nM |  |  | 
CSc1ccc(OP(=O)(Oc2ccc(SC)cc2)C(CC(C)C)NC(=O)C2CCCN2C(=O)C(NC(=O)CCCCC2SCC3NC(=O)NC32)C(C)C)cc1 (stereo not drawn) [Compound 12, bis(4-(methylthio)phenyl) (3-methyl-1-(1-(3-methyl-2-(5-(2-oxohexahydro-1H-thieno[3,4-d]imidazol-4-yl)pentanamido)butanoyl)pyrrolidine-2-carboxamido)butyl)phosphonate] | 436 ± 22 nM | 2.6*10^3 M^-1S^-1 | > 5000 nM |  |  | 1.9*10^3 M^-1S^-1 | 4.5*10^4 M^-1S^-1 |  | 66.5 ± 6.5 nM | 1.7*10^4 M^-1S^-1 |  |  |  | 289 ± 10 nM | > 5000 nM | 4*10^3 M^-1S^-1 | 
CSc1ccc(OP(=O)(Oc2ccc(SC)cc2)C(NC(=O)C(NC(=O)C(NC(=O)C(Cc2ccccc2)NC(=O)CCC(=O)NCCCCCNC(=O)CCCCC2SCC3NC(=O)NC32)C(C)C)C(C)O)c2ccc(NC(=N)N)cc2)cc1 (stereo not drawn) [Compound 11, bis(4-(methylthio)phenyl) 10-benzyl-1-(4-guanidinophenyl)-4-(1-hydroxyethyl)-7-isopropyl-3,6,9,12,15,23-hexaoxo-27-(2-oxohexahydro-1H-thieno[3,4-d]imidazol-4-yl)-2,5,8,11,16,22-hexaazaheptacosylphosphonate] | 4740 ± 556 nM | 2.4*10^2 M^-1S^-1 |  | 480 ± 15.5 nM | 2.4*10^3 M^-1S^-1 | 2.7*10^3 M^-1S^-1 |  | > 5000 nM |  |  |  | 603 ± 49 nM | 3.8*10^3 M^-1S^-1 |  |  |  | > 5000 nM
